The test system of assay [1] is carbapenemase producing K. pneumoniae. The assay is described as follows: MIC by broth micro-dilution (CLSI), carbapenemase producing K. pneumoniae. Particulars: Klebsiella pneumoniae, ATCCBAA1705, KPC-2 K. pneumoniae ATCC BAA-1705; read-out: MIC. Type of assay: cell-based, Klebsiella pneumoniae.
For assay [2], the system named is methicillin-sensitive Staphylococcus aureus. In words: MIC by broth micro-dilution (CLSI), methicillin-sensitive S. aureus. It is filed as cell-based. Particulars: Staphylococcus aureus, ATCC 29213 / MSSA, MSSA S. aureus ATCC29213; read-out: MIC. (Broth dilution looks for growth in wells or tubes with falling amounts of substance.)
In assay [3] the test system is carbapenem sensitive Escherichia coli. The assay is described as follows: MIC by broth micro-dilution (CLSI), carbapenem sensitive E. coli. The following applies: Escherichia coli, ATCC25922, ESBL −ve E. coli ATCC25922; read-out: MIC. Type of assay: cell-based.
For assay [4], the system named is carbapenem sensitive Pseudomonas aeruginosa. The assay is described as follows: MIC by broth micro-dilution (CLSI), carbapenem sensitive P. aeruginosa. It is filed as cell-based. Particulars: Pseudomonas aeruginosa, ATCC27853, Meropenem susceptible P. aeruginosa ATCC27853; read-out: MIC.

The structures appear in SMILES notation. ≈ marks a conversion by molar mass, not a printed value.

A word on the MIC: it is the lowest concentration found to suppress growth. As to `CO[C@H]1CN(C(=O)[C@@H]2C[C@H](SC3=C(C(=O)O)N4C(=O)[C@H]([C@@H](C)NC(=O)Cn5cnnn5)[C@H]4[C@H]3C)CN2)C[C@@H]1N` [Example 494, (4R,5S,6R)-6-((R)-1-(2-(1H-tetrazol-1-yl)acetamido)ethyl)-3-((3S,5S)-5-((3S,4S)-3-amino-4-methoxypyrrolidine-1-carbonyl)pyrrolidin-3-ylthio)-4-methyl-7-oxo-1-azabicyclo[3.2.0]hept-2-ene-2-carboxylic acid], the MIC in assay [1] was 4 µg/mL (≈ 7.1 µM); in assay [2], 8 µg/mL (≈ 14.2 µM); in assay [3] it was 0.25 µg/mL (≈ 0.444 µM); in assay [4] it was 16 µg/mL (≈ 28.4 µM).

On to `C[C@@H](NC(=O)C(F)F)[C@H]1C(=O)N2C(C(=O)O)=C(S[C@@H]3CN[C@H](CNC(=O)[C@@H]4C[C@@H](N)CN4)C3)[C@H](C)[C@H]12` [Example 261], for which the MIC worked out at 16 µg/mL (≈ 30.2 µM) in assay [1], 2 µg/mL (≈ 3.77 µM) in assay [2], 2 µg/mL (≈ 3.77 µM) in assay [3] and 64 µg/mL (≈ 121 µM) in assay [4].

For the compound `C[C@@H](NC(=O)Cn1cnnn1)[C@H]1C(=O)N2C(C(=O)O)=C(S[C@@H]3CN[C@H](C(=O)N4C[C@@H](N)C[C@H]4CF)C3)[C@H](C)[C@H]12` [Example 491, (4R,5S,6R)-6-((R)-1-(2-(1H-tetrazol-1-yl)acetamido)ethyl)-3-((3S,5S)-5-((2S,4S)-4-amino-2-(fluoromethyl)pyrrolidine-1-carbonyl)pyrrolidin-3-ylthio)-4-methyl-7-oxo-1-azabicyclo[3.2.0]hept-2-eoe-2-carboxylic acid], the MIC in assay [1] was 2 µg/mL (≈ 3.54 µM); in assay [2], 4 µg/mL (≈ 7.07 µM); in assay [3], 0.25 µg/mL (≈ 0.442 µM); in assay [4], 8 µg/mL (≈ 14.1 µM).

As for `C[C@@H](NC(=O)Cn1cnnn1)[C@H]1C(=O)N2C(C(=O)O)=C(SC3CN(S(N)(=O)=O)C3)[C@H](C)[C@H]12` [Example 376, (4R,5S,6R)-6-((R)-1-(2-(1H-tetrazol-1-yl)acetamido)ethyl)-4-methyl-7-oxo-3-(1-sulfamoylazetidin-3-ylthio)-1-azabicyclo[3.2.0]hept-2-ene-2-carboxylic acid], the MIC is 16 µg/mL (≈ 32.9 µM) in assay [1], 8 µg/mL (≈ 16.4 µM) in assay [2], 0.25 µg/mL (≈ 0.514 µM) in assay [3] and > 128 µg/mL in assay [4].

Consider `C[C@@H](NC(=O)C(N)C(F)(F)F)[C@H]1C(=O)N2C(C(=O)O)=C(S[C@@H]3CN[C@H](C(=O)N(C)C)C3)[C@H](C)[C@H]12` (some centres unmarked) [Example 388], for which the MIC was 8 µg/mL (≈ 15.8 µM) in assay [1], 8 µg/mL (≈ 15.8 µM) in assay [2], 2 µg/mL (≈ 3.94 µM) in assay [3] and > 128 µg/mL in assay [4].

Turning to `C[C@@H](NC(=O)Cn1cnnn1)[C@H]1C(=O)N2C(C(=O)O)=C(S[C@@H]3CN[C@H](C(=O)N4C[C@@]56CNCC5C[C@@H]4C6)C3)[C@H](C)[C@H]12` (stereo partly drawn) [Example 571, (4R,5S,6R)-6-((R)-1-(2-(1H-tetrazol-1-yl)acetamido)ethyl)-3-((3S,5S)-5-((1R,7R)-3,8-Diaza-tricyclo[5.2.1.01,5]decane-8-carbonyl)-pyrrolidin-3-ylthio)-4-methyl-7-oxo-1-azabicyclo[3.2.0]hept-2-ene-2-carboxylic acid], the minimum inhibitory concentration (MIC) in assay [1] was 0.5 µg/mL (≈ 0.854 µM); in assay [2] it was 1 µg/mL (≈ 1.71 µM); in assay [3] it was 0.06 µg/mL (≈ 0.102 µM); in assay [4], 1 µg/mL (≈ 1.71 µM).

As to `C[C@@H](NC(=O)CN1CCn2nnnc2C1)[C@H]1C(=O)N2C(C(=O)O)=C(S[C@@H]3CN[C@H](C(=O)N4CC[C@@H](N)C4)C3)[C@H](C)[C@H]12` [Example 390, (4R,5S,6R)-3-((3S,5S)-5-((R)-3-aminopyrrolidine-1-carbonyl)pyrrolidin-3-ylthio)-6-((R)-1-(2-(5,6-dihydrotetrazolo[1,5-a]pyrazin-7(8H)-yl)acetamido)ethyl)-4-methyl-7-oxo-1-azabicyclo[3.2.0]hept-2-ene-2-carboxylic acid], the MIC amounted to 16 µg/mL (≈ 27.2 µM) in assay [1], 4 µg/mL (≈ 6.79 µM) in assay [2], 1 µg/mL (≈ 1.7 µM) in assay [3] and 128 µg/mL (≈ 217 µM) in assay [4].

For `C[C@@H](NC(=O)Cn1cnnn1)[C@H]1C(=O)N2C(C(=O)O)=C(S[C@@H]3CN[C@H](C(=O)N4CCC5(CCNCC5)C4)C3)[C@H](C)[C@H]12` [Example 499, (4R,5S,6R)-6-((R)-1-(2-(1H-tetrazol-1-yl)acetamido)ethyl)-3-((3S,5S)-5-(2,8-diazaspiro[4.5]decane-2-carbonyl)pyrrolidin-3-ylthio)-4-methyl-7-oxo-1-azabicyclo[3.2.0]hept-2-ene-2-carboxylic acid], the MIC in assay [1] was determined as 1 µg/mL (≈ 1.7 µM); in assay [2], 2 µg/mL (≈ 3.4 µM); in assay [3], 0.25 µg/mL (≈ 0.425 µM); in assay [4], 1 µg/mL (≈ 1.7 µM).

With `C[C@@H](NC(=O)Cn1cnnn1)[C@H]1C(=O)N2C(C(=O)O)=C(S[C@@H]3CN[C@H](C(=O)N4CC5CNC5C4)C3)[C@H](C)[C@H]12` (single isomer, unassigned) [Example 590], the MIC in assay [1] was determined as 1 µg/mL (≈ 1.83 µM); in assay [2], 4 µg/mL (≈ 7.33 µM); in assay [3], 0.25 µg/mL (≈ 0.458 µM); in assay [4], 1 µg/mL (≈ 1.83 µM).

For `C[C@@H](NC(=O)Cn1cnnn1)[C@H]1C(=O)N2C(C(=O)O)=C(S[C@@H]3CN[C@H](C(=O)N4C[C@@H](O)[C@@H](NC(=N)N)C4)C3)[C@H](C)[C@H]12` [Example 546, (4R,5S,6R)-6-((R)-1-(2-(1H-tetrazol-1-yl)acetamido)ethyl)-3-((3S,5S)-5-((3S,4R)-3-guanidino-4-hydroxypyrrolidine-1-carbonyl)pyrrolidin-3-ylthio)-4-methyl-7-oxo-1-azabicyclo[3.2.0]hept-2-ene-2-carboxylic acid], the MIC in assay [1] was 1 µg/mL (≈ 1.69 µM); in assay [2] it was 1 µg/mL (≈ 1.69 µM); in assay [3], 0.25 µg/mL (≈ 0.423 µM); in assay [4], 2 µg/mL (≈ 3.38 µM).

In the case of `CNCC(=O)N[C@H](C)[C@H]1C(=O)N2C(C(=O)O)=C(S[C@@H]3CN[C@H](C(=O)N4CCC(C)(N)CC4)C3)[C@H](C)[C@H]12` [Example 278], the MIC in assay [1] was 2 µg/mL (≈ 3.83 µM); in assay [2], 16 µg/mL (≈ 30.6 µM); in assay [3], 2 µg/mL (≈ 3.83 µM); in assay [4] it was 4 µg/mL (≈ 7.65 µM).

Consider `C[C@@H](NC(=O)Cn1cnnn1)[C@H]1C(=O)N2C(C(=O)O)=C(S[C@@H]3CNC(CNC(=O)[C@H]4CSCN4)C3)[C@H](C)[C@H]12` (some centres unmarked) [Example 354], for which the minimum inhibitory concentration (MIC) turned out to be 1 µg/mL (≈ 1.77 µM) in assay [1], 2 µg/mL (≈ 3.54 µM) in assay [2], 0.125 µg/mL (≈ 0.221 µM) in assay [3] and 32 µg/mL (≈ 56.6 µM) in assay [4].

For `C[C@@H](NC(=O)Cn1nnnc1C(F)(F)F)[C@H]1C(=O)N2C(C(=O)O)=C(S[C@@H]3CN[C@H](C(=O)N(C)C)C3)[C@H](C)[C@H]12` [Example 348, (4R,5S,6R)-3-((3S,5S)-5-(dimethylcarbamoyl)pyrrolidin-3-ylthio)-4-methyl-7-oxo-6-((R)-1-(2-(5-(trifluoromethyl)-1H-tetrazol-1-yl)acetamido)ethyl)-1-azabicyclo[3.2.0]hept-2-ene-2-carboxylic acid], the MIC in assay [1] was 16 µg/mL (≈ 28.5 µM); in assay [2] it was 8 µg/mL (≈ 14.3 µM); in assay [3] it was 1 µg/mL (≈ 1.78 µM); in assay [4], > 128 µg/mL.

With `C[C@@H](NC(=O)Cn1cnnn1)[C@H]1C(=O)N2C(C(=O)O)=C(S[C@@H]3CN[C@H](C(=O)N4CC[N+](C)(CC(N)=O)CC4)C3)[C@H](C)[C@H]12.[I-]` [Example 363, 4-((2S,4S)-4-((4R,5S,6R)-6-((R)-1-(2-(1H-tetrazol-1-yl)acetamido)ethyl)-2-carboxy-4-methyl-7-oxo-1-azabicyclo[3.2.0]hept-2-en-3-ylthio)pyrrolidine-2-carbonyl)-1-(2-amino-2-oxoethyl)-1-methylpiperazin-1-ium iodide], the MIC came to 2 µg/mL in assay [1], 4 µg/mL in assay [2], 0.25 µg/mL in assay [3] and 1 µg/mL in assay [4].

For the compound `C[C@@H](NC(=O)Cn1cnnn1)[C@H]1C(=O)N2C(C(=O)O)=C(S[C@@H]3CN[C@H](C(=O)N4CC[C@@H](C(C)(C)N)C4)C3)[C@H](C)[C@H]12` [Example 500, (4R,5S,6R)-6-((R)-1-(2-(1H-tetrazol-1-yl)acetamido)ethyl)-3-((3S,5S)-5-((R)-3-(2-aminopropan-2-yl)pyrrolidine-1-carbonyl)pyrrolidin-3-ylthio)-4-methyl-7-oxo-1-azabicyclo[3.2.0]hept-2-ene-2-carboxylic acid], the MIC worked out at 2 µg/mL (≈ 3.47 µM) in assay [1], 2 µg/mL (≈ 3.47 µM) in assay [2], 0.25 µg/mL (≈ 0.434 µM) in assay [3] and 2 µg/mL (≈ 3.47 µM) in assay [4].

On to `C[C@@H](NC(=O)Cn1cnnn1)[C@H]1C(=O)N2C(C(=O)O)=C(S[C@@H]3CN[C@H](C(=O)N4CC(C)(N)C4)C3)[C@H](C)[C@H]12` [Example 405, (4R,5S,6R)-6-((R)-1-(2-(1H-tetrazol-1-yl)acetamido)ethyl)-3-((3S,5S)-5-(3-amino-3-methylazetidine-1-carbonyl)pyrrolidin-3-ylthio)-4-methyl-7-oxo-1-azabicyclo[3.2.0]hept-2-ene-2-carboxylic acid], for which the MIC amounted to 2 µg/mL (≈ 3.75 µM) in assay [1], 4 µg/mL (≈ 7.5 µM) in assay [2], 0.125 µg/mL (≈ 0.234 µM) in assay [3] and 4 µg/mL (≈ 7.5 µM) in assay [4].

Take `C[C@@H](NC(=O)[C@@H](N)Cn1cccn1)[C@H]1C(=O)N2C(C(=O)O)=C(S[C@@H]3CN[C@H](C(=O)N(C)C)C3)[C@H](C)[C@H]12` [Example 311, (4R,5S,6R)-6-((R) - 1-((S)-2-amino-3-(1H-pyrazol-1-yl)propanamido)ethyl)-3-((3S,5S)-5-(dimethylcarbamoyl)pyrrolidin-3-ylthio)-4-methyl-7-oxo-1-azabicyclo[3.2.0]hept-2-ene-2-carboxylic acid]: the MIC in assay [1] was 32 µg/mL (≈ 61.6 µM); in assay [2] it was 32 µg/mL (≈ 61.6 µM); in assay [3], 8 µg/mL (≈ 15.4 µM); in assay [4] it was > 128 µg/mL.

Values taken from patent US11180504B2 (ORCHID PHARMA LTD., priority 2016, dated 2021).
